As a reminder, the boiling point is the temperature of boiling at a given pressure. As usually defined, the melting point is the temperature of the solid-liquid transition.

Conditions in one data set: not given
Consider `C=C(C)C1CC=C(CO)CC1` (stereo not drawn), for which the boiling point is 244 °C.

For the compound `C=COC=O`, the log10 vapour pressure (mmHg) is 2.5.

On to `CC(C)Cc1ccc(CC(=O)O)cc1`, for which the melting point worked out at 86 °C.

On to `CCCCCC=CCC=CCCCCCCCC(=O)O`, for which the ready biodegradability result is given as “readily biodegradable”.

`ClCCOc1ccccc1` showed a boiling point of 218 °C and a melting point of 28 °C.

As to `N#CC(=NO)c1ccccc1`, the melting point amounted to 129 °C.

`c1ccc2nncnc2c1` gave a boiling point of 238 °C and a melting point of 75.8 °C.

Take `CCCC(C)CC(C)(C)C` (stereo not drawn): the boiling point was determined as 148 °C.

`Cc1c([N+](=O)[O-])c(C)c([N+](=O)[O-])c(C(C)(C)C)c1[N+](=O)[O-]`: the melting point amounted to 110 °C and the ready biodegradability result is on record as “not readily biodegradable”.

Compound `O=C(Cc1ccccc1)OCCc1ccccc1` had a melting point of 26.5 °C.

Take `O=C(O)c1cc(Cl)c(O)c(Cl)c1`: the melting point turned out to be 265 °C.

Turning to `CC(=O)[C@@]1(C)CC[C@H]2[C@@H]3C=C(C)C4=CC(=O)CC[C@]4(C)[C@H]3CC[C@@]21C`, the melting point turned out to be 144 °C.

`CCCCCCCCCCCCCCCC(=O)OC(=O)CCCCCCCCCCCCCCC` had a melting point of 64 °C.

In turn, `CC(C)OC=O` yielded a boiling point of 68.2 °C, a log10 vapour pressure (mmHg) of 2.14 and a melting point of -80 °C.

Take `CC1=C(/C=C/C(C)=C/C=C/C(C)=C/C=C/C=C(C)/C=C/C=C(C)/C=C/C2=C(C)C(=O)CCC2(C)C)C(C)(C)CCC1`: the melting point was 179 °C.

The compound `O=C1c2ccccc2CCc2ccccc21` gave a melting point of 30 °C.

`CCCCCCCCCC=O` showed a boiling point of 208 °C, a log10 Henry constant (atm·m³/mol) of -2.74, a log10 vapour pressure (mmHg) of -0.987 and a melting point of -5 °C. For the same compound, the ready biodegradability result was “readily biodegradable”.

`CCN(CC)CCOc1ccc(C(O)(Cc2ccc(Cl)cc2)c2ccc(C)cc2)cc1` (stereo not drawn): the melting point amounted to 103 °C.

For `CC(C)CCOC(=O)C(=O)OCCC(C)C`, the boiling point was found to be 268 °C and the melting point was -9 °C.

Regarding `C=Cc1ccncc1`, the log10 Koc (L/kg) worked out at 1.18, the log10 vapour pressure (mmHg) was determined as 0.23 and the ready biodegradability result is on record as “not readily biodegradable”.

Compound `CC(C)COCOCC(C)C` had a boiling point of 166 °C.

On to `O=C(c1ccccc1)C(O)c1ccccc1` (stereo not drawn), for which the ready biodegradability entry was “readily biodegradable”.

`c1cc2c3c(c1)CCC3CCC2` (stereo not drawn): the boiling point was 249 °C and the melting point is 12.8 °C.

`C=CCCCCCCCCCO` returned a boiling point of 250 °C and a melting point of -2 °C.

`CCCCCl` came in with a boiling point of 78.6 °C, a log10 Henry constant (atm·m³/mol) of -1.78, a log10 Koa of 2.72 and a log10 vapour pressure (mmHg) of 2.01. For the same compound, the melting point is -123 °C and the ready biodegradability result is on record as “not readily biodegradable”.

Take `CC(=O)Oc1ccc(Cl)cc1Cl`: the boiling point was 244 °C.

`CC(S)CS` (stereo not drawn) came in with a boiling point of 152 °C.

Compound `O=c1n(CCCN2CCN(c3cccc(Cl)c3)CC2)nc2ccccn12` yielded a melting point of 87 °C.

`C=C[Si](OCC)(OCC)OCC` came in with a log10 vapour pressure (mmHg) of 0.358.

In turn, `CN1CCc2cc3c(cc2C(=O)Cc2ccc4c(c2C1)OCO4)OCO3` showed a melting point of 208 °C.

Regarding `Cc1ccc2ccccc2c1`, the boiling point worked out at 241 °C, the log10 Henry constant (atm·m³/mol) was -3.29, the log10 Koc (L/kg) stood at 3.6 and the log10 biodegradation half-life (days) was determined as 1.15. Moreover, the log10 vapour pressure (mmHg) is -1.26 and the melting point was 34.4 °C.

`Brc1ccsc1` yielded a boiling point of 150 °C and a log10 vapour pressure (mmHg) of 1.22.

The compound `O=C1CCc2cc(OCCCCc3nnnn3C3CCCCC3)ccc2N1` registered a melting point of 160 °C.

The compound `ClC(Br)C(Cl)Br` (stereo not drawn) showed a boiling point of 195 °C and a melting point of -26 °C.

As to `C=CCC`, the boiling point was -6.2 °C, the log10 Henry constant (atm·m³/mol) was -0.633, the log10 vapour pressure (mmHg) amounted to 3.35 and the melting point was -185 °C.

As to `O=C1C(Cl)=C(Cl)C(=O)C(Cl)=C1Cl`, the log10 Koc (L/kg) turned out to be 2.32 and the melting point is 290 °C.

Turning to `CCCCCCCCCCCCCCCCCCOP(OCCCCCCCCCCCCCCCCCC)OCCCCCCCCCCCCCCCCCC`, the ready biodegradability result is on record as “readily biodegradable”.

`CC(C)OC(=O)C1(S(=O)(=O)c2ccc([N+](=O)[O-])cc2)CC1` displayed a melting point of 123 °C.

Take `Clc1cccc2ncccc12`: the boiling point worked out at 256 °C and the melting point amounted to 45 °C.

For `Brc1ccc2ncccc2c1`, the boiling point stood at 281 °C and the melting point was 24 °C.

For `COC(=O)C1(S(=O)(=O)c2ccccc2)CCCCC1`, the melting point came to 114 °C.

The compound `COC(=O)C(F)(F)C(F)(F)C(F)(F)C(F)(F)C(F)(F)C(F)(F)C(F)(F)F` came in with a boiling point of 158 °C.

The compound `COc1ccc(O[C@@H]2O[C@H](CO)[C@H](O)[C@H](O)[C@H]2O)cc1` showed a melting point of 159 °C.

`OCCCc1ccccc1`: the boiling point is 235 °C, the log10 Henry constant (atm·m³/mol) is -6.69 and the log10 vapour pressure (mmHg) was -1.7.

Still in this data set, the particulars now being: fish.
In turn, `CC(CC(C)(C)C)CC(C)(C)C` yielded a log10 BCF of 2.94 and a log10 biotransformation half-life (days) of 0.72.

`Cc1c([N+](=O)[O-])c(C)c([N+](=O)[O-])c(C(C)(C)C)c1[N+](=O)[O-]`: the log10 BCF is 3.61.

As for `C=Cc1ccncc1`, the log10 BCF worked out at 1.86.

`CCCCCl` gave a log10 BCF of 1.23 and a log10 biotransformation half-life (days) of -0.45.

For `Cc1ccc2ccccc2c1`, the log10 BCF worked out at 1.87 and the log10 biotransformation half-life (days) is 0.88.

As to `Clc1ccc2c(c1)Oc1ccc(Cl)cc1O2`, the log10 BCF is 2.54 and the log10 biotransformation half-life (days) was found to be 0.23.

These data come from the OPERA property sets (Mansouri et al. 2018).
